From the PolyMetriX glass transition set
± gives the standard deviation of the reports.

| glass transition temperature [°C] | SMILES |
| --- | --- |
| 194.00 | *CC(c1ccccc1)C1C(=O)N(c2ccc(Oc3ccccc3)cc2)C(=O)C1* (repeat unit) |
| 253.00 | *Oc1ccc(C(c2ccc(Oc3ccc(C(=O)c4c(C(=O)c5ccc(*)cc5)c(-c5ccc(F)cc5)c(-c5ccc(F)cc5)c(-c5ccc(F)cc5)c4-c4ccc(F)cc4)cc3)cc2)(C(F)(F)F)C(F)(F)F)cc1 (repeat unit) |
| 283.00 | *C(=O)Nc1ccc(Oc2ccc(C3(c4ccc(Oc5ccc(NC(=O)c6ccc7c(c6)C(=O)N(c6ccc(Oc8ccc(S(=O)(=O)c9ccc(Oc%10ccc(N%11C(=O)c%12ccc(*)cc%12C%11=O)cc%10)cc9)cc8)cc6)C7=O)cc5)cc4)NC(=O)c4ccccc43)cc2)cc1 (repeat unit) |
| 297.50 | *C(=O)Nc1cccc(NC(=O)c2ccc3[nH]c(-c4cccc(-c5nc6cc(*)ccc6[nH]5)c4)nc3c2)c1 (repeat unit) |
| 130.00 | *CCCCCCCCOc1ccc(/C=C/c2cc(OCCCCCCCC)c(/C=C/c3ccc(O*)cc3)cc2OCCCCCCCC)cc1 (repeat unit) |
| 56.00 | *c1cc(-c2sc(-c3cc(CCCCCCC)c(*)s3)cc2CCCCCCC)c2cccccc1-2 (repeat unit) |
| 85.00 | *CC(O)COc1ccc(C(C)(C)c2ccc(OCC(O)COc3ccc(Oc4ccc(O*)cc4)cc3)cc2)cc1 (repeat unit) |
| 155.00 | *CCCCCCCCN1C(=O)c2ccc(C(c3ccc4c(c3)C(=O)N(*)C4=O)(C(F)(F)F)C(F)(F)F)cc2C1=O (repeat unit) |
| 345.00 | *C(=O)Nc1ccc(Oc2ccc(NC(=O)c3ccc4c(c3)C(=O)N(c3ccc(Oc5ccc(N6C(=O)c7ccc(*)cc7C6=O)cc5-c5ccccc5)c(-c5ccccc5)c3)C4=O)cc2)cc1 (repeat unit) |
| -4.30 | *c1cc(-c2ccc(C(=C3C=C(C(C)(C)C)C(=O)C(C(C)(C)C)=C3)c3cc(C(C)(C)C)c(OC(C)=O)c(C(C)(C)C)c3)cc2)c(*)s1 (repeat unit) |
| 284.10 | *Nc1ccc(C(c2ccc(NC(=O)c3cc(C(*)=O)cc(C(C)(C)C)c3)cc2)(C(F)(F)F)C(F)(F)F)cc1 (repeat unit) |
| 157.00 | *c1cccc(OCCCCCCOc2cccc(N3C(=O)c4ccc(-c5cccc6c5C(=O)N(*)C6=O)cc4C3=O)c2)c1 (repeat unit) |
| 192.00 | *CC(C)(C)C1C(=O)N(C2CCCCC2)C(=O)C1* (repeat unit) |
| 62.80 | *O[Si](*)(C)CCCOc1ccc(C(=O)Oc2ccc(-c3ccc(OC(=O)c4cc(OCC)cc(OCC)c4)cc3)cc2)cc1 (repeat unit) |
| 340.00 | *C(=O)Nc1ccc(S(=O)(=O)c2ccc(NC(=O)c3ccc4c(c3)C(=O)N(c3ccc(-c5sc(-c6ccc(N7C(=O)c8ccc(*)cc8C7=O)cc6)c(-c6ccccc6)c5-c5ccccc5)cc3)C4=O)cc2)cc1 (repeat unit) |
| 140.00 | *Oc1ccc(S(=O)(=O)c2ccc(Oc3ccc(C(C)(C)c4ccc(OCCCCOc5ccc(C(C)(C)c6ccc(*)cc6)cc5)cc4)cc3)cc2)cc1 (repeat unit) |
| 76.00 | *C1C(=O)N(CCCCCCOc2ccc(-c3ccc(C#N)cc3)cc2)C(=O)C1* (repeat unit) |
| 254.00 | *c1ccc(C(=O)c2ccc(Oc3ccc(-c4nn(*)c(=O)c5ccccc45)cc3Br)cc2)cc1 (repeat unit) |
| 274.00 | *c1ccc2c(c1)C(=O)N(c1c(C(C)C)cc(C(c3ccccc3)(c3cc(C(C)C)c(N4C(=O)c5ccc(C(*)(C(F)(F)F)C(F)(F)F)cc5C4=O)c(C(C)C)c3)C(F)(F)F)cc1C(C)C)C2=O (repeat unit) |
| 295.00 | *c1cccc(N2C(=O)c3ccc(Oc4c(C)cc(-c5cc(C)c(Oc6ccc7c(c6)C(=O)N(*)C7=O)c(C)c5)cc4C)cc3C2=O)c1 (repeat unit) |
| 201.00 | *CC1CC2CC1C1CCC(CN3C(=O)c4ccc(Oc5ccc6c(c5)C(=O)N(*)C6=O)cc4C3=O)C21 (repeat unit) |
| 224.00 | *CCN(CCN1C(=O)c2ccc(C(c3ccc4c(c3)C(=O)N(*)C4=O)(C(F)(F)F)C(F)(F)F)cc2C1=O)c1ccc(/C=C/C2=CC(=C(C#N)C#N)CC(C)(C)C2)cc1 (repeat unit) |
| -9.00 | *CCCCCCCCOC(=O)c1cccc(C(=O)O*)c1 (repeat unit) |
| 62.00 | *CCCCCCCCCOC(=O)Nc1ccc(C)c(NC(=O)O*)c1 (repeat unit) |

| glass transition temperature [°C] | SMILES |
| --- | --- |
| 417.00 | *c1ccc(-n2c(=O)c3cc4c(=O)n(*)c(=O)c4cc3c2=O)cc1 (repeat unit) |
| 23.00 | *CC(*)c1ccc(COCC(F)(F)C(F)(F)C(F)(F)C(F)(F)F)cc1 (repeat unit) |
| 232.00 | *Oc1ccc(NC(=O)Nc2ccccc2CCc2ccccc2NC(=O)Nc2ccc(*)cc2)cc1 (repeat unit) |
| 133.00 | *CC(*)(C)C(=O)OCCCCCCCCCCCCCCC(=O)NC1OC(CO)C(OC2OC(CO)C(O)C(O)C2O)C(O)C1O (repeat unit) |
| 232.50 | *C(F)(F)C(*)(F)C(F)(F)C(F)(F)C(F)(F)C(F)(F)C(F)(F)F (repeat unit) |
| 215.00 | *c1ccc(OCCN(CC)c2ccc(-c3ccc(C(=C(C#N)C#N)c4ccc(N(CC)CC)cc4)s3)cc2)c(-c2cc(-c3ccccc3)c3cc(Oc4ccc5nc(*)cc(-c6ccccc6)c5c4)ccc3n2)c1 (repeat unit) |
| 130.00 | *CCN(CCOC(=O)Nc1ccc(Cc2ccc(NC(=O)O*)cc2)cc1)c1ccc(/N=N/c2ccc([N+](=O)[O-])cc2C)c(C)c1 (repeat unit) |
| 246.00 | *c1ccc(Oc2cccc(Oc3ccc(N4C(=O)c5ccc(Oc6ccc(C(C)(C)c7ccc(Oc8ccc9c(c8)C(=O)N(*)C9=O)cc7)cc6)cc5C4=O)cc3)c2)cc1 (repeat unit) |
| 236.50 | *C(C)C(*)C(=O)OC12CC3CC(CC(C3)C1)C2 (repeat unit) |
| 163.00 | *c1ccc(Oc2ccc(N3C(=O)N4C(c5ccc(OC)cc5)N(*)C(=O)N4C3c3ccc(OC)cc3)cc2)cc1 (repeat unit) |
| 354.50 | *c1ccc(-c2nc3ccc(-c4ccc5nc(*)c(-c6ccccc6)nc5c4)cc3nc2-c2ccccc2)cc1 (repeat unit) |
| 24.00 | *CCCCCCCCCCCCOc1ccc(OCc2ccc(COc3ccc(O*)cc3)cc2)cc1 (repeat unit) |
| 146.50 | *c1ccc(OCCOCCOc2cccc(N3C(=O)c4ccc(Oc5ccc6c(c5)C(=O)N(*)C6=O)cc4C3=O)c2)cc1 (repeat unit) |
| 111.00 | *O[Si](*)(C)CCc1cc(C(=O)Oc2ccc(OC)cc2)ccc1C(=O)Oc1ccc(OC)cc1 (repeat unit) |
| 29.00 | *CCCCCCCCCCCNC(=O)CCCCCCCCCCCCCCCCCCC(=O)N* (repeat unit) |
| 60.00 | *CCCCCCCCCCCOC(=O)c1cc(OCCCCCCCCOc2ccc(/N=N/c3ccc(OC)cc3)cc2)cc(C(=O)OCCCCCCCCCCCOc2ccc(-c3ccc(O*)cc3)cc2)c1 (repeat unit) |
| 60.00 | *CC#C/C(C#CCOC(=O)CCCCCCCCC(=O)O*)=C\c1ccc(C#Cc2ccc([N+](=O)[O-])cc2)cc1 (repeat unit) |
| 40.30 | *CCCCCCOC(=O)NC1CCC(CC2CCC(NC(=O)OCCCCCCOc3ccc(CCc4ccc(O*)cc4)cc3)CC2)CC1 (repeat unit) |
| 208.00 | *c1ccc(NC(=O)c2cc(NC(=O)c3ccc(NC(=O)C(C)N4C(=O)c5ccccc5C4=O)cc3)cc(C(=O)Nc3ccc(S(*)(=O)=O)cc3)c2)cc1 (repeat unit) |
| 323.00 | *C(=O)c1ccc2c(c1)C(=O)N(c1cc(Br)c(Oc3c(Br)cc(N4C(=O)c5ccc(*)cc5C4=O)cc3Br)c(Br)c1)C2=O (repeat unit) |
| 128.00 | *c1cc(C)c(/N=C/c2ccc(OCc3ccccc3COc3ccc(/C=N/c4cc(C)c(N5C(=O)c6ccc7c8ccc9c%10c(ccc(c%11ccc(c6c7%11)C5=O)c%108)C(=O)N(*)C9=O)cc4C)cc3)cc2)cc1C (repeat unit) |
| 116.00 | *Cc1ccc(C(C)(C)c2ccc(CN3C(=O)c4ccc(Oc5ccc6c(c5)C(=O)N(*)C6=O)cc4C3=O)o2)o1 (repeat unit) |
| 243.00 | *c1ccc(Oc2ccc(C(=O)c3ccc(Oc4ccc(N5C(=O)c6ccc(Oc7ccc8c(c7)C(=O)N(*)C8=O)cc6C5=O)cc4)cc3)cc2)cc1 (repeat unit) |
| 278.00 | *c1ccc(Oc2ccc(C(=O)c3ccc(C(=O)c4ccc(Oc5ccc(-c6nc(-c7ccc(-c8nc(*)c(-c9ccccc9)[nH]8)cc7)[nH]c6-c6ccccc6)cc5)cc4)cc3)cc2)cc1 (repeat unit) |

| SMILES | glass transition temperature [°C] |
| --- | --- |
| *CCCCCNC(=O)CC(=O)N* (repeat unit) | 65.00 |
| *CC(*)C1CCCC1 (repeat unit) [Poly(vinyl cyclopentane) ] | 75 ± 0.6 |
| *CC(*)c1ccc(C)nc1 (repeat unit) | 136.00 |
| *CC(*)OCCCCCCCC (repeat unit) [Poly(octyl vinyl ether)] | -79.83 ± 0.9 |
| *CC(=O)C(*)c1ccc(C(C)(C)C)cc1 (repeat unit) | 158.00 |
| *=NP(=NP(=NC(=*)Oc1ccc(Br)cc1)(Oc1ccc(Br)cc1)Oc1ccc(Br)cc1)(Oc1ccc(Br)cc1)Oc1ccc(Br)cc1 (repeat unit) | 45.00 |
| *c1ccc(OCCN(CCOc2ccc(-c3nc4ccc(Oc5ccc6nc(*)c(-c7ccccc7)nc6c5)cc4nc3-c3ccccc3)cc2)c2ccc(/C=C/c3ccc([N+](=O)[O-])cc3)cc2)cc1 (repeat unit) | 201.00 |
| *CCCCO* (repeat unit) [Poly(tetramethylene glycol)] | -83.6 ± 2.2 |
| *CCc1ccc(*)cc1 (repeat unit) [Poly(p-xylene)] | 70 ± 10 |
| *CCN(*)C(=O)CC(C)C (repeat unit) | 30.00 |
| *CC(*)(C)C(=O)Oc1ccc(C)cc1C (repeat unit) | 109.00 |
